{
  "source": "EPA's ToxValDB 9.5",
  "system": "Rattus norvegicus",
  "conditions": "short-term, duration: 28 days, oral, gavage, Sprague-Dawley",
  "data": [
    {"compound": "O=S(=O)(O)C(F)(F)C(F)(F)C(F)(F)C(F)(F)F", "note": "[Perfluorobutanesulfonic acid]", "values": [
      {"measurement": "LOEL", "setting": "F, Clinical chemistry_Alanine aminotransferase", "result": 250, "unit": "mg/kg-day"},
      {"measurement": "NOEL", "setting": "F, Clinical chemistry_Albumin", "result": 1000, "unit": "mg/kg-day"},
      {"measurement": "NOEL", "setting": "F, Clinical chemistry_Albumin/globulin ratio", "result": 1000, "unit": "mg/kg-day"},
      {"measurement": "LOEL", "setting": "F, Clinical chemistry_Alkaline phosphatase", "result": 500, "unit": "mg/kg-day"},
      {"measurement": "LOEL", "setting": "F, Clinical chemistry_Aspartate aminotransferase", "result": 500, "unit": "mg/kg-day"},
      {"measurement": "LOEL", "setting": "F, Clinical chemistry_Cholesterol", "result": 500, "unit": "mg/kg-day"},
      {"measurement": "LOEL", "setting": "F, Clinical chemistry_Direct bilirubin", "result": 500, "unit": "mg/kg-day"},
      {"measurement": "LOEL", "setting": "F, Clinical chemistry_Free thyroxine", "result": 62.6, "unit": "mg/kg-day"},
      {"measurement": "NOEL", "setting": "F, Clinical chemistry_Globulin", "result": 1000, "unit": "mg/kg-day"},
      {"measurement": "NOEL", "setting": "F, Clinical chemistry_Sorbitol dehydrogenase", "result": 1000, "unit": "mg/kg-day"},
      {"measurement": "NOEL", "setting": "F, Clinical chemistry_Testosterone", "result": 1000, "unit": "mg/kg-day"},
      {"measurement": "NOEL", "setting": "F, Clinical chemistry_Thyroid stimulating hormone", "result": 1000, "unit": "mg/kg-day"},
      {"measurement": "LOEL", "setting": "F, Clinical chemistry_Total bile acids", "result": 250, "unit": "mg/kg-day"},
      {"measurement": "LOEL", "setting": "F, Clinical chemistry_Total bilirubin", "result": 500, "unit": "mg/kg-day"},
      {"measurement": "NOEL", "setting": "F, Clinical chemistry_Total protein", "result": 1000, "unit": "mg/kg-day"},
      {"measurement": "LOEL", "setting": "F, Clinical chemistry_Total thyroxine", "result": 62.6, "unit": "mg/kg-day"},
      {"measurement": "LOEL", "setting": "F, Clinical chemistry_Total triiodothyronine", "result": 62.6, "unit": "mg/kg-day"},
      {"measurement": "NOEL", "setting": "F, Clinical chemistry_Triglycerides", "result": 1000, "unit": "mg/kg-day"},
      {"measurement": "LOEL", "setting": "F, Gene expression_Acox1", "result": 250, "unit": "mg/kg-day"},
      {"measurement": "LOEL", "setting": "F, Gene expression_Cyp2b1", "result": 62.6, "unit": "mg/kg-day"},
      {"measurement": "LOEL", "setting": "F, Gene expression_Cyp2b2", "result": 62.6, "unit": "mg/kg-day"},
      {"measurement": "LOEL", "setting": "F, Gene expression_Cyp4a1", "result": 62.6, "unit": "mg/kg-day"},
      {"measurement": "NOEL", "setting": "F, Hematology_Erythrocytes", "result": 1000, "unit": "mg/kg-day"},
      {"measurement": "NOEL", "setting": "F, Hematology_Hematocrit", "result": 1000, "unit": "mg/kg-day"},
      {"measurement": "NOEL", "setting": "F, Hematology_Hemoglobin", "result": 1000, "unit": "mg/kg-day"},
      {"measurement": "NOEL", "setting": "F, Hematology_Leukocytes", "result": 1000, "unit": "mg/kg-day"},
      {"measurement": "LOEL", "setting": "F, Hematology_Reticulocytes", "result": 125, "unit": "mg/kg-day"},
      {"measurement": "NOEL", "setting": "F, Hematology_S. neutrophils", "result": 1000, "unit": "mg/kg-day"},
      {"measurement": "LOEL", "setting": "F, Nonneoplastic effects_Bone marrow - Hypocellularity", "result": 1000, "unit": "mg/kg-day"},
      {"measurement": "LOEL", "setting": "F, Nonneoplastic effects_Kidney - Papilla, necrosis", "result": 1000, "unit": "mg/kg-day"},
      {"measurement": "LOEL", "setting": "F, Nonneoplastic effects_Liver - Hepatocyte, cytoplasmic alteration", "result": 500, "unit": "mg/kg-day"},
      {"measurement": "LOEL", "setting": "F, Nonneoplastic effects_Liver - Hepatocyte, hypertrophy", "result": 500, "unit": "mg/kg-day"},
      {"measurement": "NOEL", "setting": "F, Nonneoplastic effects_Liver - Hepatocyte, vacuolization cytoplasmic", "result": 1000, "unit": "mg/kg-day"},
      {"measurement": "LOEL", "setting": "F, Nonneoplastic effects_Liver - Necrosis", "result": 1000, "unit": "mg/kg-day"},
      {"measurement": "LOEL", "setting": "F, Nonneoplastic effects_Nose - Olfactory epithelium, degeneration", "result": 125, "unit": "mg/kg-day"},
      {"measurement": "LOEL", "setting": "F, Nonneoplastic effects_Nose - Olfactory epithelium, hyperplasia", "result": 250, "unit": "mg/kg-day"},
      {"measurement": "LOEL", "setting": "F, Nonneoplastic effects_Nose - Olfactory epithelium, inflammation, suppurative", "result": 1000, "unit": "mg/kg-day"},
      {"measurement": "LOEL", "setting": "F, Nonneoplastic effects_Nose - Olfactory epithelium, necrosis", "result": 1000, "unit": "mg/kg-day"},
      {"measurement": "NOEL", "setting": "F, Nonneoplastic effects_Spleen - Extramedullary hematopoiesis, decreased", "result": 1000, "unit": "mg/kg-day"},
      {"measurement": "NOEL", "setting": "F, Nonneoplastic effects_Stomach, forestomach - Epithelium, hyperplasia", "result": 1000, "unit": "mg/kg-day"},
      {"measurement": "LOEL", "setting": "F, Nonneoplastic effects_Thymus - Atrophy", "result": 1000, "unit": "mg/kg-day"},
      {"measurement": "LOEL", "setting": "F, Organ weights_Heart - Absolute", "result": 500, "unit": "mg/kg-day"},
      {"measurement": "NOEL", "setting": "F, Organ weights_Heart - Relative", "result": 1000, "unit": "mg/kg-day"},
      {"measurement": "LOEL", "setting": "F, Organ weights_Liver - Absolute", "result": 250, "unit": "mg/kg-day"},
      {"measurement": "LOEL", "setting": "F, Organ weights_Liver - Relative", "result": 125, "unit": "mg/kg-day"},
      {"measurement": "NOEL", "setting": "F, Organ weights_Lung - Absolute", "result": 1000, "unit": "mg/kg-day"},
      {"measurement": "NOEL", "setting": "F, Organ weights_Lung - Relative", "result": 1000, "unit": "mg/kg-day"},
      {"measurement": "NOEL", "setting": "F, Organ weights_R. adrenal gland - Absolute", "result": 1000, "unit": "mg/kg-day"},
      {"measurement": "NOEL", "setting": "F, Organ weights_R. adrenal gland - Relative", "result": 1000, "unit": "mg/kg-day"},
      {"measurement": "NOEL", "setting": "F, Organ weights_R. kidney - Absolute", "result": 1000, "unit": "mg/kg-day"},
      {"measurement": "LOEL", "setting": "F, Organ weights_R. kidney - Relative", "result": 62.6, "unit": "mg/kg-day"},
      {"measurement": "LOEL", "setting": "F, Organ weights_Spleen - Absolute", "result": 500, "unit": "mg/kg-day"},
      {"measurement": "NOEL", "setting": "F, Organ weights_Spleen - Relative", "result": 1000, "unit": "mg/kg-day"},
      {"measurement": "LOEL", "setting": "F, Organ weights_Thymus - Absolute", "result": 500, "unit": "mg/kg-day"},
      {"measurement": "NOEL", "setting": "F, Organ weights_Thymus - Relative", "result": 1000, "unit": "mg/kg-day"},
      {"measurement": "LOEL", "setting": "F, Reproductive toxicity_Altered estrous cyclicity", "result": 250, "unit": "mg/kg-day"},
      {"measurement": "LOEL", "setting": "F, Survival rates", "result": 250, "unit": "mg/kg-day"},
      {"measurement": "LOEL", "setting": "F, body weight", "result": 1000, "unit": "mg/kg-day"},
      {"measurement": "LOEL", "setting": "M, Clinical chemistry_Alanine aminotransferase", "result": 500, "unit": "mg/kg-day"},
      {"measurement": "NOEL", "setting": "M, Clinical chemistry_Albumin", "result": 1000, "unit": "mg/kg-day"},
      {"measurement": "LOEL", "setting": "M, Clinical chemistry_Albumin/globulin ratio", "result": 62.6, "unit": "mg/kg-day"},
      {"measurement": "LOEL", "setting": "M, Clinical chemistry_Alkaline phosphatase", "result": 250, "unit": "mg/kg-day"},
      {"measurement": "LOEL", "setting": "M, Clinical chemistry_Aspartate aminotransferase", "result": 500, "unit": "mg/kg-day"},
      {"measurement": "LOEL", "setting": "M, Clinical chemistry_Cholesterol", "result": 62.6, "unit": "mg/kg-day"},
      {"measurement": "LOEL", "setting": "M, Clinical chemistry_Direct bilirubin", "result": 500, "unit": "mg/kg-day"}
    ]}
  ]
}
